Like-named read-outs stand apart in the source and are kept apart here.
Experiments:
C3PV = assay: MTT cell viability assay on normal fibroblasts C3PV; assay type: cell-based, human; details: 24 h treatment, triplicates, read-out: IC50 (µM ± SD) C3PV
Protocol: (§1) The primary human healthy fibroblast C3PV cell line was grown in a culture medium containing 50% Dulbecco Modified Medium (DMEM) and 50% Ham’s F10 supplemented with 10% Fetal Bovine Serum (FBS). […] To all growing media were added 1% Pen/Strep and 1% Glutamine.
To study the effect of artemisinin derivatives on cell viability, MTT assay was performed. Briefly, C3PV, WM115, and WM266 cell lines were seeded in 96-well plates (3000 cells/well in 100 μL of medium) 24 h before treatment and incubated overnight to allow for cell adherence. […] The analyses of cell viability were performed at the end of the treatment. Triplicates were made in all experiments. After 24 h of treatment with newly synthesized compounds, the culture medium was replaced with a solution containing 0.5 mg/mL of MTT. After 3 h of incubation in an incubator, the medium was removed, and a lysis solution (10% SDS, 0.6% acetic acid in DMSO) was added to dissolve the formazan crystals. Optical density measurements were performed with a microplate reader EPOCH/2 (Biotek) with 630 nm (background) and a 570 nm filters.
(§2) The IC50 values were determined via non-linear regression, using the GraphPad Prism software package version 8 (GraphPad Software, San Diego, CA, USA). Results were expressed as means of IC50 values ± SD. The TSI values were calculated using the following formula: […]

WM115 = assay: MTT cell viability assay on primary melanoma cell line WM115; assay type: cell-based, human; details: for IC50: primary melanoma WM115, MTT, 24 h treatment, triplicates, read-out: IC50 (µM ± SD) WM115; for TSI WM115: tumor selectivity index = IC50 on C3PV / IC50 on WM115
Protocol: as §1
(§3) To study the effect of artemisinin derivatives on cell viability, MTT assay was performed. Briefly, C3PV, WM115, and WM266 cell lines were seeded in 96-well plates (3000 cells/well in 100 μL of medium) 24 h before treatment and incubated overnight to allow for cell adherence. Afterward, the medium was replaced with a fresh one containing the appropriate dose of newly synthesized compounds (doses ranging from 0.01 to 1 μM were used for 24 h). The analyses of cell viability were performed at the end of the treatment. Triplicates were made in all experiments. After 24 h of treatment with newly synthesized compounds, the culture medium was replaced with a solution containing 0.5 mg/mL of MTT. After 3 h of incubation in an incubator, the medium was removed, and a lysis solution (10% SDS, 0.6% acetic acid in DMSO) was added to dissolve the formazan crystals. Optical density measurements were performed with a microplate reader EPOCH/2 (Biotek) with 630 nm (background) and a 570 nm filters.
as §2

WM266 [1] = assay: MTT cell viability assay on metastatic melanoma cell line WM266; assay type: cell-based, human; details: for TSI WM266: tumor selectivity index = IC50 on C3PV / IC50 on WM266
Protocol: as §1, §3, §2

WM266 [2] = assay: Cell viability assay in the presence or absence of DFO on WM266; assay type: cell-based; details: Homo sapiens, treatment time 48 h
Source text: To obtain information about the mode of action of compounds 9c, 9f, 10b, and 10f, we repeated the cell viability assays on the metastatic cancer line WM266 in the presence of the Fe^2+ chelating agent deferoxamine (DFO). As mentioned above, Fe^2+ ions trigger endoperoxide bridge opening of the sesquiterpene counterpart by Fenton-like mechanisms, leading to the formation of carbon- and oxygen-centered radicals. Usually, this in cell formation of single-electron reactive species seems to be responsible for the biological activity of ART and its semisynthetic and hybrid derivatives. Sequestration of Fe^2 by DFO generally reduces the efficacy of the compounds studied.
DFO was used to study the mode of action of compounds 9c, 9f, 10b, and 10f on WM266 cell line. Twenty-four hours before treatment, cells were seeded in 96-well plates and incubated overnight. Then, cells were pre-treated with 20 μM of DFO for 1 h. After this time, two washes with PBS were performed, and, subsequently, fresh medium containing different doses of the opportune compound was added for 48h. The analyses of cell viability were performed at the end of treatment, and triplicates were made in all experiments.

[3] = Stability by NMR analyses after heating; assay type: physicochemical; details: after heating at 45 and 100 °C for 8 and 2 h, respectively
Protocol: Based on cellular results, hybrids 9c, 9f, 10b, and 10f were selected for further studies. Their stability was evaluated by NMR analyses after heating them at 45 and 100 °C for 8 and 2 h, respectively (Supplementary Materials S1).

[4] = Homo sapiens, WM266, 24 h, metastatic melanoma WM266, MTT, 24 h treatment, triplicates, read-out: IC50 (µM ± SD) WM266
[5] = metastatic melanoma WM266, MTT, 24 h treatment, triplicates, read-out: IC50 (µM ± SD) WM266

| IC50 (WM115; Homo sapiens, WM-115, 24 h) | IC50 (WM266 [1]; [4]) | Compound | IC50 (C3PV; Homo sapiens, C3PV, 24 h) | TSI WM115 (WM115) | TSI WM266 (WM266 [1]) | other results |
| --- | --- | --- | --- | --- | --- | --- |
| 1.5 ± 0.01 µM | 1.3 ± 0.2 µM | C[C@H]1[C@H](OC(=O)CCC(=O)O)O[C@@H]2O[C@@]3(C)CC[C@H]4[C@H](C)CC[C@@H]1[C@@]24OO3 [ARTA 3, artesunic acid, reference compound] | 1.7 ± 0.44 µM | 1.1 | 1.3 | – |
| 2.1 ± 0.3 µM | 1.4 ± 0.56 µM | CC(C)=CCCC(C)CCO[C@H]1O[C@@H]2O[C@@]3(C)CC[C@H]4[C@H](C)CC[C@@H]([C@H]1C)[C@@]24OO3 (some centres unmarked) [Hybrid 9c] | 364 ± 7.9 µM | 173.4 | 260.1 | IC50 (WM266 [1]; Homo sapiens, WM266, reference hybrid on WM266, as printed in Table 2, read-out: IC50 ± SD R.H.): 1.4 ± 0.56 µM; IC50 (WM266 [2]; WM266, pre-treated with 20 μM DFO for 1 h, read-out: IC50 ± SD WM266 with DFO): 12.7 ± 0.3 µM; IC50 (WM266 [2]; WM266, without DFO, read-out: IC50 ± SD WM266 without DFO): 1.4 ± 0.56 µM; decomposition by 1H NMR [3]: less than 5% |
| 1.5 ± 0.07 µM | 0.6 ± 0.02 µM | CC(C)=CCC[C@@H](C)CCO [(+)-citronellol (+)-6, (+)-citronellol, reference compound] | 1.9 ± 0.8 µM | 1.3 | 3.2 | – |
| 14.5 ± 1.1 µM | 13.4 ± 1.5 µM | CC(C)=CCC/C(C)=C/CO[C@H]1O[C@@H]2O[C@@]3(C)CC[C@H]4[C@H](C)CC[C@@H]([C@H]1C)[C@@]24OO3 [Hybrid 9g] | 6.2 ± 0.7 µM | 0.4 | 0.5 | – |
| 2.9 ± 0.6 µM | 2.7 ± 0.2 µM | CC(C)=CCC[C@@H](C)CCO[C@H]1O[C@@H]2O[C@@]3(C)CC[C@H]4[C@H](C)CC[C@@H]([C@H]1C)[C@@]24OO3 [Hybrid 9d] | 51 ± 0.3 µM | 17.6 | 18.9 | – |
| – | 76.3 ± 9.5 µM | CC(C)=CCCC(C)=CCOC1OC2OC3(C)CCC4C(C)CCC(C1C)C24O3 (centres unmarked) [Hybrid 11f] | – | – | – | fold lower antimelanoma effect compared to the corresponding compounds 9c and f (WM266 [1]; WM266, 2-deoxy analogue vs. corresponding DHA hybrid): 40 fold |
| – | – | CC(C)=CCCC(C)CCOC(=O)CCC(=O)OC1OC2OC3(C)CCC4C(C)CCC(C1C)C24OO3 (centres unmarked) [Hybrid 10e] | – | 2.7 | 3.2 | IC50 (C3PV): 5.1 ± 1.7 µM; IC50 (WM115): 1.9 ± 0.6 µM; IC50 (WM266 [1]; [5]): 1.6 ± 0.9 µM |
| 0.1 ± 0.01 µM | 1 ± 0.09 µM | C=CCc1ccc(O[C@H]2O[C@@H]3O[C@@]4(C)CC[C@H]5[C@H](C)CC[C@@H]([C@H]2C)[C@@]35OO4)c(OC)c1 [Hybrid 9a] | 0.7 ± 0.04 µM | 7.0 | 0.7 | – |
| 1.2 ± 0.02 µM | 0.6 ± 0.04 µM | C=C(C)[C@@H]1CC=C(CO)CC1 [Perillyl alcohol 5, perillyl alcohol, reference compound] | 52.5 ± 9.5 µM | 43.8 | 87.5 | – |
| 0.5 ± 0.01 µM | 0.5 ± 0.09 µM | CC(C)=CCC/C(C)=C/CO [Geraniol 8, geraniol, reference compound] | 0.5 ± 0.02 µM | 1.0 | 1.0 | – |
| 2.3 ± 0.7 µM | 0.9 ± 0.04 µM | CC(=O)O[C@H]1C(=O)[C@@]2(C)[C@H]([C@H](OC(=O)c3ccccc3)[C@]3(O)C[C@H](OC(=O)[C@H](O)[C@@H](NC(=O)c4ccccc4)c4ccccc4)C(C)=C1C3(C)C)[C@]1(OC(C)=O)CO[C@@H]1C[C@@H]2O [PTX, paclitaxel, reference compound] | 78.9 ± 0.8 µM | 34.3 | 87.7 | – |
| – | – | CC(C)=CCCC(C)=CCOC(=O)CCC(=O)OC1OC2OC3(C)CCC4C(C)CCC(C1C)C24OO3 (centres unmarked) [Hybrid 10g] | – | 1.6 | 2.4 | IC50 (C3PV): 2.4 ± 0.9 µM; IC50 (WM115): 1.5 ± 0.7 µM; IC50 (WM266 [1]; [5]): 1 ± 0.1 µM |
| 1.7 ± 0.5 µM | 1.3 ± 0.8 µM | CC(C)=CCCC(C)CCOC(=O)CCC(=O)OC1OC2OC3(C)CCC4C(C)CCC(C1C)C24OO3 (centres unmarked) [Hybrid 10d] | 4.8 ± 0.9 µM | 2.8 | 3.7 | – |
| 2.6 ± 0.05 µM | 0.3 ± 0.23 µM | CC(C)=CCCC(C)CCO (racemic) [(±)-citronellol (±)-6, (±)-citronellol, reference compound] | 3 ± 1.2 µM | 1.2 | 10.0 | TSI WM266 (WM266 [1]; listed as citronellol (±)-6): 10 |
| – | 35.1 ± 2.5 µM | CC(C)=CCCC(C)CCOC1OC2OC3(C)CCC4C(C)CCC(C1C)C24O3 (centres unmarked) [Hybrid 11c] | – | – | – | – |
| 1.4 ± 0.03 µM | 0.5 ± 0.01 µM | CC(C)=CCC/C(C)=C\CO [Nerol 7, nerol, reference compound] | 3.8 ± 1.5 µM | 2.7 | 7.6 | – |
| 1.3 ± 0.9 µM | 0.6 ± 0.02 µM | CC(C)=CCCC(C)CCOC(=O)CCC(=O)OC1OC2OC3(C)CCC4C(C)CCC(C1C)C24OO3 (mixture of isomers) [Hybrid 10c] | 4.4 ± 2.9 µM | 3.4 | 7.3 | – |
| 0.9 ± 0.03 µM | 0.5 ± 0.3 µM | CC(C)=CCC[C@H](C)CCO [(-)-citronellol (-)-6, (-)-citronellol, reference compound] | 1 ± 0.9 µM | 1.1 | 2.0 | – |
| 1.5 ± 0.8 µM | 0.6 ± 0.1 µM | C=CCc1ccc(OC(=O)CCC(=O)OC2OC3OC4(C)CCC5C(C)CCC(C2C)C35OO4)c(OC)c1 (centres unmarked) [Hybrid 10a] | 1.6 ± 0.3 µM | 1.1 | 2.7 | – |
| 2.4 ± 0.1 µM | 2.2 ± 0.6 µM | CC(C)=CCC[C@H](C)CCO[C@H]1O[C@@H]2O[C@@]3(C)CC[C@H]4[C@H](C)CC[C@@H]([C@H]1C)[C@@]24OO3 [Hybrid 9e] | 50 ± 0.03 µM | 20.8 | 22.7 | – |
| – | – | C=CCc1ccc(O)c(OC)c1 [Eugenol 4, eugenol, reference compound] | – | 0.3 | 1.1 | IC50 (C3PV; Homo sapiens): 1 ± 0.1 µM; IC50 (WM115; Homo sapiens, WM-115): 3 ± 0.02 µM; IC50 (WM266 [1]; Homo sapiens, metastatic melanoma WM266, MTT, 24 h treatment, triplicates, read-out: IC50 (µM ± SD) WM266): 0.9 ± 0.05 µM |
| 0.2 ± 0.01 µM | 0.2 ± 0.01 µM | C=C(C)C1CC=C(CO[C@H]2O[C@@H]3O[C@@]4(C)CC[C@H]5[C@H](C)CC[C@@H]([C@H]2C)[C@@]35OO4)CC1 (some centres unmarked) [Hybrid 9b] | 0.3 ± 0.1 µM | 1.5 | 1.5 | – |
| 1.6 ± 0.4 µM | 1.6 ± 0.03 µM | C[C@H]1[C@@H](O)O[C@@H]2O[C@@]3(C)CC[C@H]4[C@H](C)CC[C@@H]1[C@@]24OO3 [DHA 2, dihydroartemisinin, reference compound] | 0.7 ± 0.19 µM | 0.4 | 0.4 | – |

— paper PMC11279807, “Modulation of the Antimelanoma Activity Imparted to Artemisinin Hybrids by the Monoterpene Counterpart” (Molecules, 2024)
